Experimental findings from US8569280B2, “Methods for the treatment of multiple myeloma” (Immune Disease Institute, priority 2005, dated 2013) are described below.

Assay [1] concerns 5T33mM cells. The following applies: recipient mice treated with inhibitor. On the procedure:
AMD3100 and PBS is implanted, and the survival rate after 2 hours, 24 hours and 6 days is measured.
5T33mM cells, obtained as described above, are injected into recipient mice.

For the next assay, the system named is MM cells. Kind of assay: transwell migration assay of MM cells toward SDF-1. The class given is cell-based. On the procedure: AMD3100 was evaluated in amounts of 0-100 μM with all wells containing 20 nM SDF-1 in the lower chambers. […] 10 μM of anti-CXCR4MAB171 antibody inhibited migration to 53%, and 200 μM of MAB171 inhibited migration to 35% compared to a control (P=0.007).
The transwell migration assay was used to test the effect of the CXCR4 inhibitor AMD3100 on the migration of MM cells.
Similarly, the transwell migration assay was used to test the effect of the anti-CXCR 4 antibody MAB171 (10-800 μM) for 16 hours and its IgG2a isotype control on the in vitro migration of MM cells. […] Anti-CXCR4MAB171 inhibited 10 μM migration to 53%, and 200 μM migration to 35% compared with the control (P=0.007).

The subject of assay [2] is 5T33mM cells. Kind of assay: survival and serum IgG2b of mice injected with 5T33mM cells. The class given is in vivo, mouse. Particulars: subcutaneous osmotic pump, 25 mg/mL, 0.5 μl/hr, 21 days, started at the time of cell injection; versus PBS.
Procedure: FIG. 5 is a graph showing the survival of C57BL/6 mice after injection with 10×10^6 5T33^eGFP cells. Osmotic pumps are installed at the time of injection, and either AMD3100 or PBS is implanted. The osmotic pumps are changed every 7 days, and the pump administration is discontinued after 21 days.
AMD3100 is delivered via a subcutaneous osmotic pump at a concentration of 25 mg/mL and a delivery rate of 0.5 μl/hr. The osmotic devices delivered the drug for 21 days.

Each structure is given as a SMILES string.

In the case of `c1cc(CN2CCCNCCNCCCNCC2)ccc1CN1CCCNCCNCCCNCC1` [AMD3100], the “homing of 5T33mM cells to bone marrow” value in the assay on 5T33mM cells [1] (2 hours) is recorded as “does not affect”. For the same compound, in the assay on 5T33mM cells [1] (24 hours), the “retention of 5T33mM cells in bone marrow” value is “does not affect”. Moreover, the “proliferation/survival of 5T33mM cells in bone marrow” value with 5T33mM cells [1] (6 days) is “significantly reduces”. In the assay with MM cells (10 μM AMD3100, 16 hours, 20 nM SDF-1 in lower chambers, read-out: inhibition of migration of MM cells compared with control), the inhibition at 10 µM turned out to be 70%. Besides, the “dose dependence of inhibition of MM cell migration” value in the assay with MM cells (AMD3100 0-100 μM, MAB171 0-400 μg/mL or 10-800 μM, 16 hours) is listed as “dose-dependent inhibition of migration”. Further, in the assay on MM cells (AMD3100 above 10 μM up to 100 μM, 16 hours), the “inhibition of migration at doses higher than 10 μM” value is “did not induce further inhibition of migration”. For the same compound, the “survival of mice injected with 5T33 cells” value in the assay with 5T33mM cells [2] is listed as “an increase in survival is observed”.
